Experimental data taken from patent publication US7045497B1, “Use of peptide” (Takeda Chemical Industries, Ltd., priority 1998, dated 2006).
No end group written: not given here.

Tested on: oxytocin secretion
Experiment: Effect of third intraventricular administration of PrRP (19P2-L31) on amount of oxytocin secreted in plasma (radioimmunoassay)
Format: in vivo, Mature male Wistar rats
Procedure: Mature male Wistar rats (weighing 350 to 380 g at the time of surgery) were anesthetized by intraperitoneal administration of 50 mg/kg pentobarbital, and were fixed in a rat brain stereotactic instrument. The brace bar was lowered 3.3 mm from the intra-oral line. The cranial bone was exposed, and a dental drill was used to perforate the bone in order to implant a guide cannula AG-12 (inside diameter 0.4 mm, outside diameter 0.5 mm, Eicom) into the third ventricle. Anchor screws were embedded in four locations around the cannula. The stainless steel guide cannula AG-12 was inserted to a position at the top of the third ventricle. Position coordinates were AP: +7.1 mm, L: 0.0 mm, and H: +2.0 mm, in accordance with the atlas of Paxinos and Watson (1986). The guide cannula was secured to the cranial bone using instant adhesive, dental cement, and the anchor screws. A stainless steel dummy cannula AD-12 (outside diameter 0.35 mm, Eicom) was inserted into the guide cannula and secured with a cap nut (Eicom). Following surgery, the rats were bred in individual cages.
Animal were given about 1 week to recover after implantation of the guide cannulas, and blood was drawn as the animals were allowed to move freely. Rats which had undergone the aforementioned surgery were anesthetized by intraperitoneal administration of 50 mg/kg pentobarbital. […]

Q: What does the source list for “PrRP (19P2-L31): physiologically active peptide, ligand for G protein-coupled receptors phGR3 (GPR10) and UHR-1; described in Nature 393:272–276 (1998) and WO 97/24436 (SRTHRHSMEIRTPDINPAWYASRGIRPVGRF; ends and bridges not checked; UniProt P81277 23-53, looked up)”?
A: oxytocin concentration in blood relative to control group (rat, 10 nmol to the third ventricle, 5 minutes after administration, FIG. 2): about 2 times; oxytocin concentration in blood after intraventricular administration (rats, intraventricular administration, result in words): elevated oxytocin concentration in blood
